One test addresses T1, Ephrin type-B receptor 3 (Homo sapiens, UniProt P54753).
T1 sequence (P54753 whole entry): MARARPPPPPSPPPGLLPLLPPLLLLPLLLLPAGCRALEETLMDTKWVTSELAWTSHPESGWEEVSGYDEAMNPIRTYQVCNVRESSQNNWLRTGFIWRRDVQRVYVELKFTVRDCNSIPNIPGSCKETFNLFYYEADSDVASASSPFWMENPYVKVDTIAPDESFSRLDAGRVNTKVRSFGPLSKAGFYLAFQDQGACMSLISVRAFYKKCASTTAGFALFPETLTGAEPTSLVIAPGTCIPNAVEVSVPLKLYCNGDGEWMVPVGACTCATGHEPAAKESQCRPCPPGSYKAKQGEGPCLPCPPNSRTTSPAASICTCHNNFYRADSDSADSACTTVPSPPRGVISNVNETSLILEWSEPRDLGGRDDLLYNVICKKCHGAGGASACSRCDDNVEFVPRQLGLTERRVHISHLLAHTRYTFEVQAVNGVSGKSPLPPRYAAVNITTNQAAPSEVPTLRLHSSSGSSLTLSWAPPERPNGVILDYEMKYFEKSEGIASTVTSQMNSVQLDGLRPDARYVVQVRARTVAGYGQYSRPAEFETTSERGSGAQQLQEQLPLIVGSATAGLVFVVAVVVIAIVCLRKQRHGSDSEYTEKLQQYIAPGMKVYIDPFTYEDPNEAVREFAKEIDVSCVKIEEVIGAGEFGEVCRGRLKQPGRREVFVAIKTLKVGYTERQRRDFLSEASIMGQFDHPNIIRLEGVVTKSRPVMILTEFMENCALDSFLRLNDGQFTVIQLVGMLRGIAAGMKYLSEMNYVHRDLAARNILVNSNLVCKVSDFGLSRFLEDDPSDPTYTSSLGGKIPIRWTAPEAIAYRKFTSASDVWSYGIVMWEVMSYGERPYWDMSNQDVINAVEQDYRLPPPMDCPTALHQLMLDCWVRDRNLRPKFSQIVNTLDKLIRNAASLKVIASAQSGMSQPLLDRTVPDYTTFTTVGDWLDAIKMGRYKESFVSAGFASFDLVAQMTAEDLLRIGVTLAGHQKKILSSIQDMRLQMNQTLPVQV

Test [1] concerns the target Mitogen-activated protein kinase kinase kinase kinase 4 (Homo sapiens, UniProt O95819).
In test [2] the target is T2, Serine/threonine-protein kinase LATS1 (Homo sapiens, UniProt O95835).
T2 sequence (O95835 whole entry): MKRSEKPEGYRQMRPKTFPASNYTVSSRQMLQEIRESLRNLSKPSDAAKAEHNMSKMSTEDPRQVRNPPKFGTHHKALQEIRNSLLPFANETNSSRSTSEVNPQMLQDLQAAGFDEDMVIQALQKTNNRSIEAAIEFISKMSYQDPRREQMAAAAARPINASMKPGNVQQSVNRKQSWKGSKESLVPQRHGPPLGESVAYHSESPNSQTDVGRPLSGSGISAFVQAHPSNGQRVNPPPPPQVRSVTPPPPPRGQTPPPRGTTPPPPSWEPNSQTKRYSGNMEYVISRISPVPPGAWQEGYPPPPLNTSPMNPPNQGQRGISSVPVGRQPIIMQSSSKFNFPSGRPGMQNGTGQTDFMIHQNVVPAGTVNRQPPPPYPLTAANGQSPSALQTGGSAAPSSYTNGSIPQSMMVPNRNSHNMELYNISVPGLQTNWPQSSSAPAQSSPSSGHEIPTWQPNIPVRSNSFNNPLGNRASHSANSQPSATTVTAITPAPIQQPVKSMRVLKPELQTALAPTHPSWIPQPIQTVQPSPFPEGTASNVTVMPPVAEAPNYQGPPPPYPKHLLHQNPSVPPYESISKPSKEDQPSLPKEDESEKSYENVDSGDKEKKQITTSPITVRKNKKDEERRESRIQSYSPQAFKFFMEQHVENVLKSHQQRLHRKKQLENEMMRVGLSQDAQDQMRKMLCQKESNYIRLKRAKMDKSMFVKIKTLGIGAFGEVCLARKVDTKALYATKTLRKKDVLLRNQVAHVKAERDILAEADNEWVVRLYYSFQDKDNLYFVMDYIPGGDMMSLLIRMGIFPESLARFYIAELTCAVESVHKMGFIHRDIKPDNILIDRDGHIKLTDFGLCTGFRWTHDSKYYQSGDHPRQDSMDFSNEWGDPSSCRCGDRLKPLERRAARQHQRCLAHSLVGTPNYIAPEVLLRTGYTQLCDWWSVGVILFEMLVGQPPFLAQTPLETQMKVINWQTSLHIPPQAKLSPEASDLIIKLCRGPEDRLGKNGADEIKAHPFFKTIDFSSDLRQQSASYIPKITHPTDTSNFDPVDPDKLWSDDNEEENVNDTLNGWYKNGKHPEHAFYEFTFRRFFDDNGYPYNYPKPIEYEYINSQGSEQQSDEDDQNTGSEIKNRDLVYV

Test [3] has as its target Serine/threonine-protein kinase/endoribonuclease IRE1 (Homo sapiens, UniProt O75460).
The target in test [4] is T3, Uncharacterized protein FLJ45252 (Homo sapiens, UniProt Q6ZSR9).
T3 sequence (Q6ZSR9 whole entry): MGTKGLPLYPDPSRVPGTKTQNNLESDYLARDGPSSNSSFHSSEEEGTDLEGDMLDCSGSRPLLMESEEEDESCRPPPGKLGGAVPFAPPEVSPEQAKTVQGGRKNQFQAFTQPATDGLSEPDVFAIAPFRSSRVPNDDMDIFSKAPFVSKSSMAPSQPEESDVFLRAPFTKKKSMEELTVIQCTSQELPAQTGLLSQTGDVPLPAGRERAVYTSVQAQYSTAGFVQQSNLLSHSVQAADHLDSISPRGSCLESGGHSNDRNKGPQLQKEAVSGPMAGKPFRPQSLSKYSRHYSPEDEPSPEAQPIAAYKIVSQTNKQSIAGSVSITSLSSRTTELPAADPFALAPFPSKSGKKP
As to conditions: read-out: Kd apparent; k-562, colo 205, sk-n-be(2) and mv-4-11.

For test [5], the target named is Serine/threonine-protein kinase PAK 2 (Homo sapiens, UniProt Q13177).
The target in test [6] is Macrophage-stimulating protein receptor (Homo sapiens, UniProt Q04912).
For test [7], the target named is Chromodomain-helicase-DNA-binding protein 4 (Homo sapiens, UniProt Q14839).

Activity calls are given as the source filed them. Rule as the data show it, for most assays here: actives have a measured Kd and inactives only a lower limit.
Also: in the data inactive means no Kd found up to 30 µM.

Sequence of Macrophage-stimulating protein receptor (Q04912 25-304 limits assumed): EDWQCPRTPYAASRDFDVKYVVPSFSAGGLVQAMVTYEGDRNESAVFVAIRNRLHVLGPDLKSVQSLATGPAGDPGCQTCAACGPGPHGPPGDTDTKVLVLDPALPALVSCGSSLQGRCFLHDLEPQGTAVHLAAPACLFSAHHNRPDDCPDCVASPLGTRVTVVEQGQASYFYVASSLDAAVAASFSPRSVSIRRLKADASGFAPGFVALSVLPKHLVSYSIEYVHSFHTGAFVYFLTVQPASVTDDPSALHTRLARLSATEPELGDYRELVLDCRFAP
Sequence of Macrophage-stimulating protein receptor (Q04912 310-1400 limits assumed): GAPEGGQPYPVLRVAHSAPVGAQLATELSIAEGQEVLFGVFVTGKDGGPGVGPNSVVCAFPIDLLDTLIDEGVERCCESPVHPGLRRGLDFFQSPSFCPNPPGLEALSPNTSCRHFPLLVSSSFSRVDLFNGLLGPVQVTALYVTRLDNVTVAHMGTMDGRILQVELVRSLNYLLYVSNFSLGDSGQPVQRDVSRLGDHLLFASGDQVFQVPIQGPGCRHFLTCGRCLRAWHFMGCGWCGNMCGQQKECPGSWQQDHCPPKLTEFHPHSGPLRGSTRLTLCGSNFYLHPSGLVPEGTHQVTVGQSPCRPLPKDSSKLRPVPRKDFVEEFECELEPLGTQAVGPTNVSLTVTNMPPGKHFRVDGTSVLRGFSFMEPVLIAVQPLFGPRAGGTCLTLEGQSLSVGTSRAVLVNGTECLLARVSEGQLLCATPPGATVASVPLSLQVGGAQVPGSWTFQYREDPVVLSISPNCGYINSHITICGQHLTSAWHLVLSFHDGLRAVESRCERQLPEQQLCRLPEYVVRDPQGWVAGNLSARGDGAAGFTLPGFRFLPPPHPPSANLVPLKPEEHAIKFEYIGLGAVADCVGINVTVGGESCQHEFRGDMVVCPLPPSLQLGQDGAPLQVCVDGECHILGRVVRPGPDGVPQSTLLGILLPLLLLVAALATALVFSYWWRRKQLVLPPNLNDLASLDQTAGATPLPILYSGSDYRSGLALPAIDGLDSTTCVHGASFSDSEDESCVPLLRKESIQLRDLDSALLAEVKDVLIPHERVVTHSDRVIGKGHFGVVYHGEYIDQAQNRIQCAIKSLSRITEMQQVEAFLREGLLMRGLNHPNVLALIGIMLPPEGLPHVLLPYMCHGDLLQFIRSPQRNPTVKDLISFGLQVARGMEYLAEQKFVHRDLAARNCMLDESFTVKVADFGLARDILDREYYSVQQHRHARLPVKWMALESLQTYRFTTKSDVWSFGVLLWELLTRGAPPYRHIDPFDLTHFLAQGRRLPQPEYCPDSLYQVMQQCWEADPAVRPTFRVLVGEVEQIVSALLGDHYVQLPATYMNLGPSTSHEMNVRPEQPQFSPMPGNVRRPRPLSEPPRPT
Sequence of Serine/threonine-protein kinase PAK 2 (Q13177 whole entry): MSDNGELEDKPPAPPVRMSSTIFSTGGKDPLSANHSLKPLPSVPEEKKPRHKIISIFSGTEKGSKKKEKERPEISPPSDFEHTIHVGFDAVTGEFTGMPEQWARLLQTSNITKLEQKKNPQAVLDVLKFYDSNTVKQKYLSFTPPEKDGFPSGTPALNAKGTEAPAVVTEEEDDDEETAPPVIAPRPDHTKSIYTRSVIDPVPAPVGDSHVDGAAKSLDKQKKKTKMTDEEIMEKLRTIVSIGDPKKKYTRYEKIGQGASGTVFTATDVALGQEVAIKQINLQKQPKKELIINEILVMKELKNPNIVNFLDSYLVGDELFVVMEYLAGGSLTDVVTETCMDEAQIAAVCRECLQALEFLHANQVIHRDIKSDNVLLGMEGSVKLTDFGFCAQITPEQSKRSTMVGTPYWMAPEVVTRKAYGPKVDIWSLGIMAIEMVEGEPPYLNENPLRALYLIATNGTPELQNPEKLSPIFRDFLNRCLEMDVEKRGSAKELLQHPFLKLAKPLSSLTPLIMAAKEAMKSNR
Sequence of Chromodomain-helicase-DNA-binding protein 4 (Q14839 whole entry): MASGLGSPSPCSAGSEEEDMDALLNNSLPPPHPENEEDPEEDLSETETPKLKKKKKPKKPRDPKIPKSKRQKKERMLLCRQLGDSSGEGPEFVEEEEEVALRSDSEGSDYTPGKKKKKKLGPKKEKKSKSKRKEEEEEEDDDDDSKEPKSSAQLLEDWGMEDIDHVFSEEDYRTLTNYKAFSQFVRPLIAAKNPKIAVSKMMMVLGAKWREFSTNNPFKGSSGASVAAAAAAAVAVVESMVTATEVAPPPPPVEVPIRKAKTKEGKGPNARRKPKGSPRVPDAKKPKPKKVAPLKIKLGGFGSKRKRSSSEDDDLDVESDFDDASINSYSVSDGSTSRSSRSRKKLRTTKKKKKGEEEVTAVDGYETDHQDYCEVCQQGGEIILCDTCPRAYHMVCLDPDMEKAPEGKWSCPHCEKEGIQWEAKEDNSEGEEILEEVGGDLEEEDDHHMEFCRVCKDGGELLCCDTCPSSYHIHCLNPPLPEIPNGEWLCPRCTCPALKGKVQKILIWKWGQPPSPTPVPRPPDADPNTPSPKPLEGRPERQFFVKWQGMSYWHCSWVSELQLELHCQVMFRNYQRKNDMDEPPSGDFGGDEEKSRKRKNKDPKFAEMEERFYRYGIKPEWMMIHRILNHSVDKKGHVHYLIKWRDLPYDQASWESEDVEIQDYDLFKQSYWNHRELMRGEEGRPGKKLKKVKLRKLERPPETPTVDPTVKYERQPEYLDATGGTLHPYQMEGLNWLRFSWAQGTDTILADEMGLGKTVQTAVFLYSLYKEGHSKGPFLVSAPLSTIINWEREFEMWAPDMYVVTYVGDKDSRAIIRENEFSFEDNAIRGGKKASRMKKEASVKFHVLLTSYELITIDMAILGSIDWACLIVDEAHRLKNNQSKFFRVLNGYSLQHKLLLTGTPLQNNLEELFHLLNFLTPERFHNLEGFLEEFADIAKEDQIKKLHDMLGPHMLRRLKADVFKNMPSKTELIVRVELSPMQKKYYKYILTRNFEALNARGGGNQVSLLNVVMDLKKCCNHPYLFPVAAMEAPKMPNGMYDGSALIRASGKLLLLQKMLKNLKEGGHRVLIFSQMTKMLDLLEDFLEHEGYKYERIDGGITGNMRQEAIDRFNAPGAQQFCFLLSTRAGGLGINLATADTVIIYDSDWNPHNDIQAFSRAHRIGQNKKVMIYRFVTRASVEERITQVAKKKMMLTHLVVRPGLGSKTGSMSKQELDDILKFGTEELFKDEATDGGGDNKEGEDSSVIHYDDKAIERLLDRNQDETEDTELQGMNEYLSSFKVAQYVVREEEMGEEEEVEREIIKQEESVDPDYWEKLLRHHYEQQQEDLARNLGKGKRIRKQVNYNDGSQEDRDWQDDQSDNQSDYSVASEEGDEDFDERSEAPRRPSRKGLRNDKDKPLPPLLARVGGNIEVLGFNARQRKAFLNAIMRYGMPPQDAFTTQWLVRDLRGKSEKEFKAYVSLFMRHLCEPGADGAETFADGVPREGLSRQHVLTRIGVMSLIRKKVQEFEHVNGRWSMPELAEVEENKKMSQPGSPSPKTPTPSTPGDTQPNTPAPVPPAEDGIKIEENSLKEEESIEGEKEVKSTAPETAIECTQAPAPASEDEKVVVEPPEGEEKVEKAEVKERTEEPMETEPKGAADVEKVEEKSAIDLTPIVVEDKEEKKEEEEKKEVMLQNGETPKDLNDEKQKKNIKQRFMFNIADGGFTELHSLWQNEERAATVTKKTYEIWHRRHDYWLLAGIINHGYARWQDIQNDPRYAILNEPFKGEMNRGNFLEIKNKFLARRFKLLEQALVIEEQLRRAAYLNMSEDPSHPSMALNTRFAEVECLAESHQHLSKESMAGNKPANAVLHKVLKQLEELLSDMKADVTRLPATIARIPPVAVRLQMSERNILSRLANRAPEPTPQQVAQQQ
Sequence of Serine/threonine-protein kinase/endoribonuclease IRE1 (O75460 whole entry): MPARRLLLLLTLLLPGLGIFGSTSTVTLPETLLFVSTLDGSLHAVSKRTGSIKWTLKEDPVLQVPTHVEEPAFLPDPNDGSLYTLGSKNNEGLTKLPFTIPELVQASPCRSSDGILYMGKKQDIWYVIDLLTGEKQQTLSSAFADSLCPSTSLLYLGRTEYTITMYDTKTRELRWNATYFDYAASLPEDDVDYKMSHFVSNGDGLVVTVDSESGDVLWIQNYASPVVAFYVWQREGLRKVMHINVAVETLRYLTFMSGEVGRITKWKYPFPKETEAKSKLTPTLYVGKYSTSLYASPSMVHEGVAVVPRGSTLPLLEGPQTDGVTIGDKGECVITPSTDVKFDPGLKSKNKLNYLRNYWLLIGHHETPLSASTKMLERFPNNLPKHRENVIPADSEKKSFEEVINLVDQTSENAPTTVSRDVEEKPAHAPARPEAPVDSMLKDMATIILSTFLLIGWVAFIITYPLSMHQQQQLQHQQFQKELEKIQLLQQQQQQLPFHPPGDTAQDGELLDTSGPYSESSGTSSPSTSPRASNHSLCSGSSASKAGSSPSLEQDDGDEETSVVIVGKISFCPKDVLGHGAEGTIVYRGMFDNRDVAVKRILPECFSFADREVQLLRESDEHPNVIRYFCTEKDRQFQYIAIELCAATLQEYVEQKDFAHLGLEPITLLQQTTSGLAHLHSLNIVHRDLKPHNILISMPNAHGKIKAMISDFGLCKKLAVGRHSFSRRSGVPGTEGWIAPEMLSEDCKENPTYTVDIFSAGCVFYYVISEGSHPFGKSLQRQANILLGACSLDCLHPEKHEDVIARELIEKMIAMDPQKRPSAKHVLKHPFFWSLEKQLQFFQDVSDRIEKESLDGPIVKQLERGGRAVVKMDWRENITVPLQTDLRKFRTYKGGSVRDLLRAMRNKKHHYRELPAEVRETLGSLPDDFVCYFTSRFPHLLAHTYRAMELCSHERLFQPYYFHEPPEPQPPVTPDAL

`COCCNCc1ccc(-c2cc3nccc(Oc4ccc(NC(=S)NC(=O)Cc5ccc(F)cc5)cc4F)c3s2)nc1` [GLESATINIB]: the Kd was > 30 µM (inactive) on Ephrin type-B receptor 3; 0.6 µM in test [1]; > 30 µM (inactive) in test [2]; > 30 µM (inactive) in test [3]; > 30 µM (inactive) in test [4]; > 30 µM (inactive) in test [5]. Besides, the values for the Kd in test [6] and in test [7] were 2.32 µM (active) and > 30 µM (inactive), respectively.

In the case of `CNS(=O)(=O)Nc1nccc(Cc2c(C)c3ccc(Oc4ncccn4)cc3oc2=O)c1F` [AVUTOMETINIB], the Kd (at Ephrin type-B receptor 3; in test [1]; in test [2]; in test [3]; in test [4]; in test [5]) was > 30 µM (inactive) in each case. For the same compound, the Kd in test [6] and in test [7] was > 30 µM (inactive) throughout.

Values taken from ChEMBL document CHEMBL3991601, “The target landscape of clinical kinase drugs” (Science, 2017).
